Data taken from patent US20220242870A1, “HETEROCYCLE-FUSED PYRIMIDINE DERIVATIVE AND USE THEREOF” (VORONOI Inc., priority 2019, published 2022).

Assays:
human FLT3-ITD enzyme = molecular target: T1, human FLT3-ITD enzyme (Homo sapiens, UniProt P36888); assay: FLT3 enzyme inhibitory ability (ADP-Glo kinase assay); assay type: biochemical; settings: human FLT3-ITD enzyme 10 ng, ATP 10 μM, 25° C. 1 hour
T1 sequence (P36888 1-993): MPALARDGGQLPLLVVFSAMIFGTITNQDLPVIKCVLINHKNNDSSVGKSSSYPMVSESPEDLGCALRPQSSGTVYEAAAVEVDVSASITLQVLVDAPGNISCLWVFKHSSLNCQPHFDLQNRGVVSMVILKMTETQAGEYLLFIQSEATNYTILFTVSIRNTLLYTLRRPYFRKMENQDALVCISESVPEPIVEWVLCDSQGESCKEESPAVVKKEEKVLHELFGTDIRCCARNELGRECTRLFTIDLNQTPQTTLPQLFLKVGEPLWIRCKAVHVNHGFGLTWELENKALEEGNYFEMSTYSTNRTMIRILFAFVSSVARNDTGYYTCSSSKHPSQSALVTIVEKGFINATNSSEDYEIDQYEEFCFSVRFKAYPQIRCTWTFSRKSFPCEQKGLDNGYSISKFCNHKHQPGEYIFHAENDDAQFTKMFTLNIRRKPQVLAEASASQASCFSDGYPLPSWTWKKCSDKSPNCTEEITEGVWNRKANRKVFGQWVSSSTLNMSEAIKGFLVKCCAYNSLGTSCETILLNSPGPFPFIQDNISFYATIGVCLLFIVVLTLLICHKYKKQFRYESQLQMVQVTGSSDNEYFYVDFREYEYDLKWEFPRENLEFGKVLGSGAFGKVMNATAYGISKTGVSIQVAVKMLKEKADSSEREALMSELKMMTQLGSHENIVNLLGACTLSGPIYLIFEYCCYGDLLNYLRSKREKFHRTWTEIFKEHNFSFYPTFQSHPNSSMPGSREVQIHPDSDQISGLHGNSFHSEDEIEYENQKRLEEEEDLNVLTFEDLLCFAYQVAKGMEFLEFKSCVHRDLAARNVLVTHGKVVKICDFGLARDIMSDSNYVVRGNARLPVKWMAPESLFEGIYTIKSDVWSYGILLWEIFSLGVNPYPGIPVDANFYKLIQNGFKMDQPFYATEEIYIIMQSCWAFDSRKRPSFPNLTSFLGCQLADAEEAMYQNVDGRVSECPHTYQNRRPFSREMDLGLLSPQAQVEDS
In short: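 Purified human FLT3-ITD (10 ng) with 10 μM ATP and specific substrate in 40 mM Tris-HCl pH 7.4, 20 mM MgCl2, 0.5 mg/mL BSA, 50 μM DTT, 1 h at 25 °C. ADP formation read by ADP-Glo luminescence; IC50 (nM) versus solvent-treated control.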

human GST-HPK1 (1-346) = molecular target: T2, human GST-HPK1 (1-346) (Homo sapiens, UniProt Q92918); assay: HPK1 enzyme inhibitory ability (ADP-Glo kinase assay); assay type: biochemical; settings: human GST-HPK1 3 ng, ATP 3 uM, 25° C. 2 hours
T2 construct: purified human GST-HPK1 (1-346, Signalchem) enzyme; purchased Signalchem
T2 sequence (Q92918 1-346): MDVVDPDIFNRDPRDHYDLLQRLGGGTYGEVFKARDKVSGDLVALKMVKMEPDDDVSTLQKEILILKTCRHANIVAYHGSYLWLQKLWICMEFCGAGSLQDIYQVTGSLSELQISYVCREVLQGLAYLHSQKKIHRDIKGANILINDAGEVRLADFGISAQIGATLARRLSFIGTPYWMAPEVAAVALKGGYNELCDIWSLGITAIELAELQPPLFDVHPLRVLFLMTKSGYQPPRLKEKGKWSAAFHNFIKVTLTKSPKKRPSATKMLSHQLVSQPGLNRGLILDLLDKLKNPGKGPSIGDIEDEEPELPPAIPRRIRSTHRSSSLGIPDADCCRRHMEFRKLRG
In short: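 Human GST-HPK1(1-346), 3 ng, reacted with 3 uM ATP and specific substrate in 40 mM Tris-HCl pH 7.4, 20 mM MgCl2, 0.5 mg/mL BSA, 50 uM DTT for 2 h at 25° C. ADP-Glo luminescence read; IC50 (nM) relative to untreated solvent control.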

MV4-11 cells = assay: AML cell proliferation inhibitory activity (CellTiter-Glo); assay type: cell-based; settings: Homo sapiens, 72 hours
Description: The inhibitory activities of the example compounds according to the present invention on the proliferation of acute myeloid leukemia (AML) cells expressing the FLT3 mutant gene were evaluated. Specifically, RS4;11 and MV4-11 cells as acute myeloid leukemia cells expressing the FLT3 mutant gene were cultured in RPMI-1640 (Invitrogen) adding 10% FBS. The cells were seeded into each well of a clear bottom white 96-well plate (Corning) at 3000 to 5000 cells 24 hours before compound treatment. The compound was diluted in DMSO (diluted each three-fold, to a total of 12 concentrations) and injected at 0.5 μL each so as to be a final concentration of 0.3 nM to 50 μM. After 72 hours of the compound treatment, they were treated with CellTiter-Glo Luminescent Cell Viability assay (Promega) and stored at room temperature for 10 minutes, and luminescence intensities were measured with a reader (SynergyNeo, Biotek) to count viable cells. Each experiment was performed three times repeatedly. The result values were calculated as the cell growth rate (%) compared to the control treated with the solvent. The graph was derived using the GraphPad Prism program (version 5.0), the GI50 (nM) values were calculated, and the results were shown in Table 3 below.

MCF-7 cells = assay: Breast cancer cell line proliferation inhibitory activity (CellTiter-Glo 2.0); assay type: cell-based; settings: Homo sapiens, MCF7, 120 hours
Description: In order to evaluate the breast cancer cell line cell proliferation inhibitory activities of Examples according to the present invention, the following experiment was performed. Breast cancer cells of MCF-7 (Korean Cell Line Bank) were planted in a clear bottom white 96-well plate (Corning) so as to be 3×10^3/150 μl/well, and a culture solution comprising the compound continuously diluted in multiples of 3 at 12 concentrations (0.00001-2 mM) and a DMSO control group was added by 0.5 μl/well and treated so that the final concentration was 0.00005-10 μM, and then cultured in a 37° C. CO2 incubator for 120 hours. After 120 hours, the plate treated with the compound is taken out, and CellTiter-Glo® 2.0 Assay (Promega) solution is treated at 150 μl/well and then they mix well. They mix well at room temperature for 10 minutes or so, and the fluorescence is measured with a microplate reader. The data were expressed as a percentage in proportion to the vehicle standard treated cells, the GI50 (nM) values were calculated using GraphPad Prism 8.3.0 (GraphPad software Inc., San Diego), and the results were shown in Table 3 below.

SMILES	IC50 (human FLT3-ITD enzyme)	IC50 (human GST-HPK1 (1-346))	GI50 (MV4-11 cells)	GI50 (MCF-7 cells)
OCCN1CCN(C2CCN(c3ccc(Nc4nc(N5OCC[C@H]5c5ccccc5)c5cc[nH]c5n4)cc3)CC2)CC1 [Example 89, (S)-2-(4-(1-(4-((4-(3-phenylisoxazolidin-2-yl)-7H-pyrrolo[2,3-d]pyrimidin-2-yl)amino)phenyl)piperidin-4-yl)piperazin-1-yl)ethan-1-ol]	0.25 to 0.5 µM	≥ 0.25 µM	0.25 to 0.5 µM	> 0.5 µM
N#Cc1c[nH]c2nc(Nc3ccc4c(c3)CCNC4)nc(N3OCC[C@H]3c3ccccc3)c12 [Example 120, (S)-4-(3-phenylisoxazolidin-2-yl)-2-((1,2,3,4-tetrahydroisoquinolin-6-yl)amino)-7H-pyrrolo[2,3-d]pyrimidine-5-carbonitrile]	≥ 0.25 µM	≥ 0.25 µM	≥ 0.25 µM	≥ 0.25 µM
CN1CCN(c2ccc(Nc3nc(N4OCC[C@@H]4c4ccccc4)c4cc[nH]c4n3)cc2)CC1 [Example 128, (R)-N-(4-(4-methylpiperazin-1-yl)phenyl)-4-(3-phenylisoxazolidin-2-yl)-7H-pyrrolo[2,3-d]pyrimidin-2-amine]			0.25 to 0.5 µM	
COc1cc(Nc2nc(N3OCC[C@H]3c3ccccc3)c3sccc3n2)ccc1N1CCC(N2CCN(C)CC2)CC1 [Example 57, (S)-N-(3-methoxy-4-(4-(4-methylpiperazin-1-yl)piperidin-1-yl)phenyl)-4-(3-phenylisoxazolidin-2-yl)thieno[3,2-d]pyrimidin-2-amine]	0.25 to 0.5 µM	> 0.5 µM	> 0.5 µM	> 0.5 µM
CN1CCN(c2ccc(Nc3nc(N4OCC[C@H]4c4cccnc4)c4cc[nH]c4n3)cc2)CC1 [Example 78, (S)-N-(4-(4-methylpiperazin-1-yl)phenyl)-4-(3-(pyridin-3-yl)isoxazolidin-2-yl)-7H-pyrrolo[2,3-d]pyrimidin-2-amine]	≥ 0.25 µM	≥ 0.25 µM	> 0.5 µM	> 0.5 µM
CN1CCN(C2CCN(c3ccc(Nc4nc(N5OCC[C@H]5c5ccccc5)c5c(C#N)c[nH]c5n4)cc3)CC2)CC1 [Example 119, (S)-2-((4-(4-(4-methylpiperazin-1-yl)piperidin-1-yl)phenyl)amino)-4-(3-phenylisoxazolidin-2-yl)-7H-pyrrolo[2,3-d]pyrimidine-5-carbonitrile]	≥ 0.25 µM	≥ 0.25 µM	≥ 0.25 µM	> 0.5 µM
COc1cc(Nc2nc(N3OCC[C@@H]3c3ccccc3)c3cc[nH]c3n2)ccc1N1CCC(N2CCN(C)CC2)CC1 [Example 129, (R)-N-(3-methoxy-4-(4-(4-methylpiperazin-1-yl)piperidin-1-yl)phenyl)-4-(3-phenylisoxazolidin-2-yl)-7H-pyrrolo[2,3-d]pyrimidin-2-amine]	> 0.5 µM		0.25 to 0.5 µM	
Cc1cc(N2CCOCC2)ccc1Nc1nc(N2N=CCC2c2ccccc2)c2sccc2n1 (centres unmarked) [Example 21, N-(2-methyl-4-morpholinophenyl)-4-(5-phenyl-4,5-dihydro-1H-pyrazol-1-yl)thieno[3,2-d]pyrimidin-2-amine]			> 0.5 µM	
CN1CCN(c2ccc(Nc3nc(N4N=CCC4c4ccccc4)c4sccc4n3)nc2)CC1 (centres unmarked) [Example 4, N-(5-(4-methylpiperazin-1-yl)pyridin-2-yl)-4-(5-phenyl-4,5-dihydro-1H-pyrazol-1-yl)thieno[3,2-d]pyrimidin-2-amine]	> 0.5 µM		> 0.5 µM	
COc1cc(Nc2nc(N3N=CCC3c3ccccc3)c3sccc3n2)ccc1C(=O)NC1CCN(C)CC1 (centres unmarked) [Example 52, 2-methoxy-N-(1-methylpiperidin-4-yl)-4-((4-(5-phenyl-4,5-dihydro-1H-pyrazol-1-yl)thieno[3,2-d]pyrimidin-2-yl)amino)benzamide]	> 0.5 µM		≥ 0.25 µM	
COc1cc(N2CCC(N3CCN(C)CC3)CC2)ccc1Nc1nc(N2N=CCC2c2ccccc2)c2sccc2n1 (centres unmarked) [Example 10, N-(2-methoxy-4-(4-(4-methylpiperazin-1-yl)piperidin-1-yl)phenyl)-4-(5-phenyl-4,5-dihydro-1H-pyrazol-1-yl)thieno[3,2-d]pyrimidin-2-amine]	≥ 0.25 µM		> 0.5 µM	

Now from value to compound:

IC50 (human FLT3-ITD enzyme)	IC50 (human GST-HPK1 (1-346))	GI50 (MV4-11 cells)	GI50 (MCF-7 cells)	SMILES
		> 0.5 µM		Cc1cn(Cc2cccc(Nc3nc(N4N=CCC4c4ccccc4)c4sccc4n3)c2)cn1 (centres unmarked) [Example 24, N-(3-((4-methyl-1H-imidazol-1-yl)methyl)phenyl)-4-(5-phenyl-4,5-dihydro-1H-pyrazol-1-yl)thieno[3,2-d]pyrimidin-2-amine]
		> 0.5 µM		Cc1cn(Cc2ccc(Nc3nc(N4N=CCC4c4ccccc4)c4sccc4n3)cc2)cn1 (centres unmarked) [Example 23, N-(4-((4-methyl-1H-imidazol-1-yl)methyl)phenyl)-4-(5-phenyl-4,5-dihydro-1H-pyrazol-1-yl)thieno[3,2-d]pyrimidin-2-amine]
		> 0.5 µM		C1=NN(c2nc(Nc3ccc(N4CCOCC4)cc3)nc3ccsc23)C(c2ccccc2)C1 (centres unmarked) [Example 3, N-(4-morpholinophenyl)-4-(5-phenyl-4,5-dihydro-1H-pyrazol-1-yl)thieno[3,2-d]pyrimidin-2-amine]
		> 0.5 µM		CN(C)CCn1cc(Nc2nc(N3N=CCC3c3ccccc3)c3sccc3n2)cn1 (centres unmarked) [Example 27, N-(1-(2-(dimethylamino)ethyl)-1H-pyrazol-4-yl)-4-(5-phenyl-4,5-dihydro-1H-pyrazol-1-yl)thieno[3,2-d]pyrimidin-2-amine]
		> 0.5 µM		O=C(c1ccc(Nc2nc(N3N=CCC3c3ccccc3)c3sccc3n2)cc1)N1CCOCC1 (centres unmarked) [Example 22, morpholino(4-((4-(5-phenyl-4,5-dihydro-1H-pyrazol-1-yl)thieno[3,2-d]pyrimidin-2-yl)amino)phenyl)methanone]
